SMILES strings stand for the structures.

The first assay deals with T1, TLR4 (Mus musculus, UniProt Q9JHF9+Q9QUK6).
T1 construct: Swiss Webster (CFW) and NFkB-luciferase reporter mice were obtained from The Jackson Laboratory; tissue The Jackson Laboratory; host or cells: whole live Swiss Webster (CFW) mice
T1 sequence (Q9QUK6 26-835): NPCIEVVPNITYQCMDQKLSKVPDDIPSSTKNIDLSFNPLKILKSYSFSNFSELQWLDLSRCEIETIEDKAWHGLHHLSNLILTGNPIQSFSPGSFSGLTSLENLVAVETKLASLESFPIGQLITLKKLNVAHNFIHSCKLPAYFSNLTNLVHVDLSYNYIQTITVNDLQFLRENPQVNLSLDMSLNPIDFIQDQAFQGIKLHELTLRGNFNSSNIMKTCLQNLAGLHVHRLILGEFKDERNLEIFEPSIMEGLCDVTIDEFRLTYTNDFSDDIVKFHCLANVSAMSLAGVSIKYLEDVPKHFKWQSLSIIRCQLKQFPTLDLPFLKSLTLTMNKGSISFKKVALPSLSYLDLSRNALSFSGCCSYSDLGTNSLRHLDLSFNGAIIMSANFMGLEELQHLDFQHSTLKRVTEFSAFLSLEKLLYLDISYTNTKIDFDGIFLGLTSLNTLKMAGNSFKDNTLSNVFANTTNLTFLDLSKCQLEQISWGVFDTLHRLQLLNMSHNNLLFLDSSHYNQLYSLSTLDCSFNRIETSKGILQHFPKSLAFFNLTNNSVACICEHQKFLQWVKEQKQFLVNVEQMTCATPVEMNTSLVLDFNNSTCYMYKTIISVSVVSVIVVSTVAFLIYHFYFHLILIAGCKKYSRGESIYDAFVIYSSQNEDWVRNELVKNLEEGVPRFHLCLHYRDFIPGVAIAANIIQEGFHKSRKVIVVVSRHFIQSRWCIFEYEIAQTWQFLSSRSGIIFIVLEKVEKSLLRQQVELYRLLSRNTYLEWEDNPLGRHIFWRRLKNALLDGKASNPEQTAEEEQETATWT
T1 sequence (Q9JHF9 19-160): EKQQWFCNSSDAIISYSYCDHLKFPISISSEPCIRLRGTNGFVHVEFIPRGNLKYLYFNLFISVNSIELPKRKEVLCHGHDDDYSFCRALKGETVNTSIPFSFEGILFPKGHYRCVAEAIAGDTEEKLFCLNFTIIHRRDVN
Nature of the assay: CFW endotoxemia assay (observation of behavior and phenotype after LPS). Type of assay: in vivo. Conditions: CFW mice, 20 nanomoles compound i.p. 30 minutes prior to LPS 2 mg/kg, 6 hours; listed as “Hits”. As for the experimental part:
Compound preparation and delivery. All 65 identified compounds were received in solid form and stored at 4° C. until use. Stock solutions of each compound were made by dissolving the appropriate amount of each compound in dimethyl sulfoxide (DMSO) to yield a concentration of 10 mM. Immediately prior to injection into experimental animals, the compounds were diluted to an experimental concentration of 100 uM in phosphate-buffered saline (PBS). Total concentration of DMSO in the final diluted drug was 1%. Compounds were closely examined to insure that no precipitate formed prior to injection and were stored on ice until injection. All compounds were given via intraperitoneal (i.p.) injection in a total volume of 200 ul using a 1 cc syringe and 27 gauge needle. In all experiments listed below, the compounds were delivered to the experimental mice 30 minutes prior to injection with lipopolysaccharide (LPS) to induce endotoxemia. Control animals not receiving compound received 1% DMSO dissolved in PBS. Following drug injection, the mice were observed closely in their cages for signs of immediate toxicity or adverse reaction to the drug, including but not limited to piloerection, tachypnea, bleeding, abnormal or aggressive behavior, signs of altered mental status, and level of activity.
Induction of endotoxemia. All mice were housed and cared for at the Rangos Research Center, Children's Hospital of Pittsburgh (Pittsburgh, Pa.). All experiments were approved by the Children's Hospital of Pittsburgh Animal Care Committee and by the Institutional Review Board of the University of Pittsburgh. Swiss Webster (CFW) and NFkB-luciferase reporter mice were obtained from The Jackson Laboratory. Throughout the course of all experiments, mice were housed 4 per cage with access to food, water, and standard bedding. Endotoxemia was induced in all experiments by i.p. injection of LPS (Escherichia coli 0111:B4 purified by gel filtration chromatography, >99% pure, Sigma-Aldrich) at a dose of 2 mg/kg for 6 hours. At the end of each experiment, all animals were euthanized by CO2 hypoxia and cervical dislocation.
CFW endotoxemia assay. In order to effectively screen the entire compound list, the remaining compounds (7-60) were screened in a model of endotoxemia using CFW mice. Three separate experiments were performed: First, Compound 7 along with a repeat of compound 4 (n=3 mice per compound, mice age 5 weeks) were tested. Controls were saline injection alone (n=1), LPS 2 mg/kg 6 hrs (n=2). Second, compounds 3, 4, 6, 8-32 were tested (n=1 mouse each, 3 week old mice). Controls were saline injection alone (n=1), LPS 2 mg/kg 6 hrs (n=2), LPS 10 mg/kg 6 hrs (n=2), Bay 11 pretreatment 20 mg/kg for 30 minutes prior to LPS 2 mg/kg 6 hrs. Third, compounds 8, 16, 33-60 were tested (n=1 mouse each, 3 week old mice). Controls were saline injection alone (n=1), LPS 2 mg/kg 6 hrs (n=2), Bay 11 pretreatment 20 mg/kg for 30 minutes prior to LPS 2 mg/kg 6 hrs. Following 6 hours of endotoxemia, mice from the second and third experiments were observed within their cages and videotaped to document behavior and phenotypic differences to assess for an inhibitory effect of compound pretreatment on the effects of LPS. Mice were identified by a number previously placed using permanent marker on their tails. The degree of piloerection, tachypnea, location in the cage (center of cage versus corners), degree of activity, and behavior relative to other animals was observed and documented via video for each mouse.
Less activity, tachypnea, and piloerection are considered symptomatic of endotoxemia, so a decrease in these is consistent with TLR inhibition by the administered compound. Note that compounds listed as negatives may still be T4Ics at other concentrations or conditions.
In the case of `O=P(O)(O)OCC1OC(OP(=O)(O)O)C(O)[C@H](O)[C@@H]1O` (stereo partly drawn) [Compound 8, cyclohexanamine compound with 1,6-di-O-phosphono-beta-D-glycero-hexopyranose (4:1) hydrate], the “Observation (Compound “Hits”)” value is listed as “More mobile, less piloerection”. As to `CC(=O)N[C@H]1[C@H](OC[C@H]2O[C@@H]3OC(C)(C)O[C@@H]3[C@H]3OC(C)(C)O[C@H]32)O[C@H](CO)[C@@H](O)[C@@H]1O` [Compound 21, N-((2R,3R,4R,5S,6R)-4,5-dihydroxy-6-(hydroxymethyl)-2-(((3aR,5R,5aS,8aS,8bR)-2,2,7,7-tetramethyltetrahydro-3aH-bis[1,3]dioxolo[4,5-b:4′,5′-d]pyran-5-yl)methoxy)tetrahydro-2H-pyran-3-yl) acetamide], the “Observation (Compound “Hits”)” value is reported as “More active, crawled over other mice, less piloerection”. On the same count and under the same terms, as for `CC(=O)NC1C(OC(C)C(=O)O)[C@H](O)C(CO)O[C@H]1O` (stereo partly drawn) [Compound 30, 2-((2R,5S)-3-acetamido-2,5-dihydroxy-6-(hydroxymethyl)tetrahydro-2H-pyran-4-yloxy)propanoic acid], the entry is “Less tachypnea, more mobile”; as for `CCCCCCO[C@@H]1O[C@H](COC(C)=O)[C@@H](OC(C)=O)[C@H](OC(C)=O)[C@H]1NC(C)=O` [Compound 36, hexyl 3,4,6-tri-O-acetyl-2-(acetylamino)-2-deoxy-beta-D-glucopyranoside], “More active, crawled over other mice, less piloerection”; as for `CC(=O)N[C@H]1[C@H](O[C@H]2[C@H](O)[C@@H](O)[C@H](O[C@H]3[C@H](O)[C@@H](CO)OC(O)[C@@H]3NC(C)=O)O[C@@H]2C(=O)O)O[C@H](CO)[C@@H](O)[C@H]1O[C@H]1O[C@H](C(=O)O)[C@@H](O)[C@H](O)[C@H]1O` (stereo partly drawn) [Compound 42, 2-(acetylamino)-3-O-{4-O-[2-(acetylamino)-2-deoxy-3-O-alpha-D-xylo-hexopyranuronosyl-beta-D-ribo-hexopyranosyl]-beta-D-xylo-hexopyranuronosyl}-2-deoxy-D-glucopyranose], “Less tachypnea, more mobile”. For the compound `CC(=O)CC1OC(OC2C(NC(C)=O)C(O)OC(CO)C2OS(=O)(=O)O)C(O)C(O)C1O` [Compound 43, 2-(acetylamino)-2-deoxy-3-O-(6,8-dideoxy-beta-L-glycero-octopyranosyl-7-ulose)-4-O-sulfo-L-erythro-hexopyranose], the “Observation (Compound “Hits”)” value is on record as “More active, crawled over other mice, less piloerection”. Turning to `CC(=O)NC1C(O)OC(CO)C(OC2OC(C)C(O)C(O)C2O)C1OC1OC(CO)C(O)C(O)C1O` (stereo not drawn) [Compound 45, 2-(acetylamino)-2-deoxy-4-O-(6-deoxyhexopyranosyl)-3-O-hexopyranosylhexopyranose], the “Observation (Compound “Hits”)” value is on record as “More active, crawled over other mice, less piloerection”.

The same assay, now with this note: CFW mice, 20 nanomoles compound i.p. 30 minutes prior to LPS 2 mg/kg, 6 hours; listed as “Negatives”.
As for `CC(=O)N[C@H]1[C@H](O[C@H]2[C@H](O)[C@@H](NC(C)=O)C(O)O[C@@H]2CO)O[C@H](CO)[C@@H](O[C@@H]2O[C@H](CO)[C@@H](O)[C@H](O)[C@H]2NC(C)=O)[C@@H]1O` (stereo partly drawn) [Compound 1, 2-(acetylamino)-4-O-{2-(acetylamino)-4-O-[2-(acetylamino)-2-deoxy-beta-D-glucopyranosyl]-2-deoxy-beta-D-glucopyranosyl}-2-deoxy-D-glucopyranose], the “Observation (Compound “Negatives”)” value is on record as “More tachypnea, rigors”. On the same count and under the same terms, the entry for `CCCCO[C@@H]1O[C@H](CO)[C@@H](OC)[C@H](OC)[C@H]1NC(C)=O` [Compound 14, butyl 2-(acetylamino)-2-deoxy-3,4-di-O-methyl-beta-D-glucopyranoside] is “Refused to move from corner, very tachpneic”. With `COC(=O)C1(OC)CC(O)C(NC(C)=O)C(C(O)C(O)CO)O1` [Compound 25, dimethyl 5-(acetylamino)-3,5-dideoxy-D-erythro-non-2-ulopyranosidonate], the “Observation (Compound “Negatives”)” value is “More piloerection, less mobile than other in the cage”. With `CC(=O)N[C@@H]1[C@@H](O)[C@@H](O)[C@@H](CO)O[C@@H]1O` [Compound 31, 2-(acetylamino)-2-deoxy-alpha-D-lyxo-hexopyranose], the “Observation (Compound “Negatives”)” value is recorded as “More tachypneic, more piloerection”. Still for that read-out and setting: the entry for `CC(=O)N[C@@H]1C[C@H](O)[C@@H](CO)O[C@H]1O[C@H]1[C@H](O)[C@@H](O)[C@H](O)O[C@@H]1C(=O)[O-].[Na+]` [Compound 32, sodium (2S,3S,4R,5R,6R)-3-((2S,3R,5S,6R)-3-acetamido-5-hydroxy-6-(hydroxymethyl)tetrahydro-2H-pyran-2-yloxy)-4,5,6-trihydroxytetrahydro-2H-pyran-2-carboxylate] is “More tachypneic, more piloerection”. Take `CC(=O)N[C@H]1[C@H](OC[C@H]2O[C@@H]3OC4(CCCCC4)O[C@@H]3[C@H]3OC4(CCCCC4)O[C@H]32)O[C@H](CO)[C@@H](O)[C@@H]1O` [Compound 37, N-[(2R,3R,4R,5S,6R)-2-[(1′S,2′R,6′R,8′R,9′S)-dispiro[cyclohexane-1,4′-[3,5,7,10,12]pentaoxatricyclo[7.3.0.0^{2,6}]dodecane-11′,1″-cyclohexane]-8′-ylmethoxy]-4,5-dihydroxy-6-(hydroxymethyl)oxan-3-yl]acetamide]: the “Observation (Compound “Negatives”)” value is recorded as “More tachypneic, less active”. As for `CC(=O)N[C@H]1C(O)O[C@H](CO)[C@@H](O)[C@@H]1O[C@H](C)C(=O)N[C@@H](C)C(=O)N[C@H](CCC(=O)O)C(N)=O` (stereo partly drawn) [Compound 40, (4R)-4-((2S)-2-((2R)-2-((3R,4R,5S,6R)-3-acetamido-2,5-dihydroxy-6-(hydroxymethyl)tetrahydro-2H-pyran-4-yloxy)propanamido)propanamido)-5-amino-5-oxopentanoic acid], the “Observation (Compound “Negatives”)” value is on record as “Less active, huddled in corner”.

With `CC(=O)N[C@H]1[C@@H](OP(=O)([O-])OP(=O)([O-])OC[C@H]2O[C@@H](n3ccc(=O)[nH]c3=O)[C@H](O)[C@@H]2O)O[C@H](CO)[C@@H](O)[C@@H]1O.[Na+].[Na+]` [Compound 41, Uridine 5′-diphospho-N-acetylglucosamine sodium salt], the “Observation (Compound “Negatives”)” value was “Less active, huddled in corner”.

For the origin of these results see patent US10933077B2, “TLR4 inhibitors for the treatment of human infectious and inflammatory disorders” (UNIVERSITY OF PITTSBURGH—OF THE COMMONWEALTH SYSTEM OF …, priority 2010, dated 2021).
